Experiment [1] addresses T1, 5-HT1A receptor (Rattus norvegicus, UniProt P19327).
T1 construct: P2 fraction (synaptosomal membranes) from the cerebral cortex of male, Wistar rats; from tissue; host or cells: cerebral cortex of male Wistar rats, P2 fraction (synaptosomal membranes)
T1 sequence (P19327 1-422): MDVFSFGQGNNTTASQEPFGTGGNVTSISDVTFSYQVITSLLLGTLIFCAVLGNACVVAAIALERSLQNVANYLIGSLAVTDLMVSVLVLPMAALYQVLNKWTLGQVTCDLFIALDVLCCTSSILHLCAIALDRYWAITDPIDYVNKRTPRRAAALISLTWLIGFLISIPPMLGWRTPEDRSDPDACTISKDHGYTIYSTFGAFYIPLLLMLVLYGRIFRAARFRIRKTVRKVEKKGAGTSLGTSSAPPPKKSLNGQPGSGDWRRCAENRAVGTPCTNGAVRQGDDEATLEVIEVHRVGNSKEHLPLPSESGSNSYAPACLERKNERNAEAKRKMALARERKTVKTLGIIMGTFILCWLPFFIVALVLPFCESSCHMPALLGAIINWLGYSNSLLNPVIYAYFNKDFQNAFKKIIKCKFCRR
In words: 5-HT1A assay (competitive binding, 3H-8-hydroxy-DPAT, cerebral cortex P2 fraction). Details: species or system male, Wistar rats. The procedure: The 5-HT1A assay used a P2 fraction (synaptosomal membranes) from the cerebral cortex of male, Wistar rats. The ligand ^3 H-8-hydroxy-DPAT was used in competitive binding experiments at a concentration of 3 nM, and 1 mM serotonin as a blank determinant. Incubation was in 3 mM potassium phosphate buffer for 20 min at 25° C.
The data from each assay were analyzed by calculating the percent inhibition of the binding of the tritiated ligands by given concentrations of the test compound. Ki values, where given, were obtained from the logit analysis of concentration-inhibition curves.

Experiment [2] concerns the target D2 receptor (Rattus norvegicus, UniProt P61169). In words: binding to the D2 receptor. The following applies: 1 μM.
Experiment [3] addresses 5-HT2 receptor (Rattus norvegicus, UniProt P14842). Kind of experiment: binding to the 5-HT2 receptor. The following applies: 1 μM.
In experiment [4] the test system is α1 receptor. In words: binding to the α1 receptor. The following applies: for inhibition in binding to the α1 receptor: 1 μM.
Experiment [5] deals with Male rats. Kind of experiment: anxiolytic activity: release of behavior suppressed by punishment (Vogel conflict test). The experiment is classed as in vivo. The procedure: The anxiolytic activity of selected compounds of the invention was assessed by determining their ability to release (disinhibit) behavior that had been suppressed by punishment (Vogel, J. R. et al. Psychopharmacology 1971, 21, 1). Male rats were deprived of water for 48 hours and were deprived of food for 24 hours prior to testing. After the first 24 hours of water deprivation, they were placed in the conflict chamber for a training period; wherein, they were allowed 200 unpunished licks from a bottle containing tap water. The experiment was run the next day. At the expected time of peak activity, the animals were placed in the chamber and allowed access to tap water. […] Their first lick initiates a 3-min test session. Subsequently,every 20th lick was punished by a 0.2-s shock delivered via the stainless-steel drinking-tube. Vehicle-treated control animals generally were willing to accept a median number of 3 to 8 shocks per test session. […] The Wilcoxon rank-sum test (Mann-WhitneyU-test) was used to test for an increase (p<0.05, 1-tailed) in the median number of shocks in drug-treated groups, compared to a concurrently run vehicle-treated group. The biological assay is considered to be valid if the effects of a known anxiolytic (positive control) are detected, within the same experiment. […]

In experiment [6] the target is D2 receptor (Homo sapiens, UniProt P14416). The following applies: background statement; cited from earlier work.
D2 receptor (Homo sapiens, UniProt P14416), sequence (P14416 whole entry): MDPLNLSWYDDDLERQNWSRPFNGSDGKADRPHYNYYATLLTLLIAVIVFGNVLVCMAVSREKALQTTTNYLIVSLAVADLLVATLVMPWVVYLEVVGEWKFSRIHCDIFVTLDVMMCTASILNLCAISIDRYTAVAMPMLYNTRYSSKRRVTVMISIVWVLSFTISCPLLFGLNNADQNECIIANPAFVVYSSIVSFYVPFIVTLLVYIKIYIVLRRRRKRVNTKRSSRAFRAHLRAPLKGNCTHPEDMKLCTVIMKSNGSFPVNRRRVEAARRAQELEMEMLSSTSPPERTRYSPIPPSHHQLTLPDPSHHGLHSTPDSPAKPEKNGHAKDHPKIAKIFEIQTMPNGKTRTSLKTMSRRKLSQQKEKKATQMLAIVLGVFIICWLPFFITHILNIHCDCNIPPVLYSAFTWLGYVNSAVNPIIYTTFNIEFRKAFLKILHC
Setting [7] is: 3H-8-hydroxy-DPAT 3 nM, 20 min, 25° C., rat cerebral cortex P2 fraction.
Where [8] appears, read: 3H-8-hydroxy-DPAT 3 nM, 20 min, 25° C., rat cerebral cortex P2 fraction, read-out: Ki (5HT1A).

The source of these data is patent US5418236A, “Anxiolytic aroyl piperidinyl and piperazinylacyl pyrroles” (Ortho Pharmaceutical Corporation, priority 1993, dated 1995).

Where two headings read alike, the source gives them in different places.

5-HT2 receptor, sequence (P14842 whole entry): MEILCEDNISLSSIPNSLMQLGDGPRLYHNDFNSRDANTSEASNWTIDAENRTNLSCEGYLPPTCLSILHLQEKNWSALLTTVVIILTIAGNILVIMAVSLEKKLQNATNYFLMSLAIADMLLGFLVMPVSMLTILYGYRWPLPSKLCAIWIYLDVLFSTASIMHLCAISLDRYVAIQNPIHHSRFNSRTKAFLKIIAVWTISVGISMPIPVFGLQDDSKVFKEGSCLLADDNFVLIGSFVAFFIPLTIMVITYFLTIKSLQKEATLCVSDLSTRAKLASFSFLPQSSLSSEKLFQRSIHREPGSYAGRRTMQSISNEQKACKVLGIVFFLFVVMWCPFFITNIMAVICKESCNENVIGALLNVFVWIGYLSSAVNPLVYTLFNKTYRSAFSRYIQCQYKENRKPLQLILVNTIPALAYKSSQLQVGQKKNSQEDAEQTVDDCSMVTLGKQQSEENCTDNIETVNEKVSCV
D2 receptor (Rattus norvegicus, UniProt P61169), sequence (P61169 whole entry): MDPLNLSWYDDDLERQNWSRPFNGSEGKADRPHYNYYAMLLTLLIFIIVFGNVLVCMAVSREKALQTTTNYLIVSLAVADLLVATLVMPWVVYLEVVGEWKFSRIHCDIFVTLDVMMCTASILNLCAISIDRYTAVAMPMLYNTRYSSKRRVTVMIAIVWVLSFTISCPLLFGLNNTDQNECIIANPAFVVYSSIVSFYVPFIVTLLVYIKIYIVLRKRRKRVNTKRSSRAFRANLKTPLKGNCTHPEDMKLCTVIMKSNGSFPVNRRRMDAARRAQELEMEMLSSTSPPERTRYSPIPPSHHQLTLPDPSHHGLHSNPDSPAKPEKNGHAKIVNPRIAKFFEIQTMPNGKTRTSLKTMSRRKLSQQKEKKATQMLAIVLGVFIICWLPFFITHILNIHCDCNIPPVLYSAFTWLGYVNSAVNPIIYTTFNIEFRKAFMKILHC

With `Cl.Cn1cc(C(=O)CN2CCC(O)(c3ccc(Cl)cc3)CC2)cc1C(=O)c1ccccc1Cl` [Example 7, 1-[5-(2-Chlorobenzoyl)-1-methyl-1H-pyrrol-3-yl]-2-[4-(4-chlorophenyl)-4-hydroxy-1-piperidinyl]ethanone Hydrochloride], the affinity in experiment [1], expressed as Ki, was 15 nM. The “inhibition in binding to the D2 receptor” value in experiment [2] was “no inhibition”. Further, in experiment [3], the “inhibition in binding to the 5-HT2 receptor” value is “no inhibition”. The “inhibition in binding to the α1 receptor” value in experiment [4] is reported as “no inhibition”. In experiment [5] (10 mg/kg IP), this compound returned a change in responding of 180%. On to `Cn1cc(C(=O)CN2CCC(c3ccccc3)CC2)cc1C(=O)c1ccc(Cl)cc1` [Example 8, 1-[5-(4-chlorobenzoyl)-1-methyl-1H-pyrrol-3-yl]-2-(4-phenylpiperidinyl)-ethanone], for which, in experiment [1] (setting [7]), the inhibition (usually the percentage by which the read-out fell short of the control) at 1 µM was found to be 69%. `Cn1cc(C(=O)CN2CCN(c3ncccn3)CC2)cc1C(=O)c1ccc([N+](=O)[O-])cc1` [Example 5, 1-[1-Methyl-5-(4-nitrobenzoyl)-1H-pyrrol-3-yl]-2-[4-(2-pyrimidinyl)-1-piperazinyl]ethanone]: in experiment [1] (setting [8]), the Ki (commonly a measure of affinity in units of concentration, obtained from inhibition or displacement) came out at 7.7 nM. Further, the “inhibition in binding to the D2 receptor” value in experiment [2] is on record as “no inhibition”. For the same compound, the “inhibition in binding to the 5-HT2 receptor” value in experiment [3] is listed as “no inhibition”. Also, the “inhibition in binding to the α1 receptor” value in experiment [4] is reported as “no inhibition”. In experiment [5] (5 mg/kg IP), this compound displayed a change in responding of 240%. Regarding `CC(C)Oc1ccccc1N1CCN(CC(=O)c2cc(C(=O)c3ccccc3Cl)n(C)c2)CC1` [Example 6-3], in experiment [1] (setting [7]), the inhibition at 1 µM was 83%. On to `Cc1c(C(=O)CN2CCN(c3ncccn3)CC2)c(C)n(C)c1C(=O)c1ccc(Cl)cc1` [Example 6-1], for which testing at 1 µM in experiment [1] (setting [7]) gave an inhibition of 24%.

`Cc1c(C(=O)CCCCN2CCN(c3ncccn3)CC2)c(C)n(C)c1C(=O)c1ccc(Cl)cc1` [Example 6-6]: in experiment [1] (setting [8]), the Ki worked out at 6 nM. With `Cn1cc(C(=O)CN2CCN(c3ncccn3)CC2)cc1C(=O)c1ccc(F)cc1` [Example 6-4], testing at 1 µM in experiment [1] (setting [7]) gave an inhibition of 91%. Consider `O=C1CC2(CCCC2)CC(=O)N1CCCCN1CCN(c2ncccn2)CC1` [buspirone], for which the Ki in experiment [4] came out at 138 nM. For the same compound, in experiment [6], the “binding to the D2 receptor” value is “binds to the D2 receptor”. Regarding `Cn1cc(C(=O)CN2CCN(c3ccccn3)CC2)cc1C(=O)c1ccc(Cl)cc1` [Example 6-2], the inhibition at 1 µM in experiment [1] (setting [7]) was 94%. Regarding `COc1cccc(OC)c1OCCNCC1COc2ccccc2O1` (stereo not drawn) [WB4101, reference compound], the Ki in experiment [1] (setting [8]) worked out at 0.32 nM. Compound `Cn1cc(C(=O)CN2CCN(c3cccc4ccccc34)CC2)cc1C(=O)c1ccc(Cl)cc1` [Example 6-5] had an inhibition at 1 µM in experiment [1] (setting [7]) of 67%. Compound `Cc1ccc(N(CC2=NCCN2)c2cccc(O)c2)cc1` [phentolamine, reference compound] registered a Ki in experiment [1] of 59 nM.
